Literature values, collected in patent US20240293350A1, “DEVELOPMENT OF AN INNOVATIVE INHALATION FORMULATION OF NAFAMOSTAT MESYLATE FOR THE MANAGEMENT OF COVID-19” (EGE UNIVERSITESI, priority 2020, published 2024).
Where a name gives a salt, the structure may show the parent alone.

Key:
SARS-COV-2 [1] = settings: administered after infection with SARS-COV-2; compared with Remdesivir
SARS-COV-2 [2] = settings: Simian Vero E6 cells infected with SARS-COV-2, cell culture
NL63 virus = settings: after infection with NL63 virus, gut-on-a-chip model; compared with Remdesivir
coronavirus = settings: primary human mucociliary airway epithelial cells

**Q.** For `N=C(N)c1ccc2cc(OC(=O)c3ccc(N=C(N)N)cc3)ccc2c1` [NM, nafamostat mesylate], which viral load (SARS-COV-2 [1]) is on record?
**A.** decreased the viral load more than Remdesivir

**Q.** What about the “prevention of infection of cells” value (SARS-COV-2 [2]) of the same molecule?
**A.** prevent cells from being infected with the virus

**Q.** And the effectiveness after infection (NL63 virus)?
**A.** much more effective after infection with the NL63 virus than Remdesivir

**Q.** What about the antiviral activity (coronavirus) of the same molecule?
**A.** demonstrated antiviral activity
